Test results from patent publication US20260007758A1, “SO[…]-2 RECEPTOR (SST2R) NON-PEPTIDE DRUG CONJUGATES AND USES THEREOF” (Crinetics Pharmaceuticals, Inc., priority 2024, published 2026).
Where two headings read alike, the source gives them in different places. *1 amine or outer side, *2 acyl side, *3 side chain or, on linkers, in order; H or OH if unused. Where a SMILES comes first, the peptide text is derived from it. [ ]: non-standard residue; d: D form. The star is where a group is joined. X3 = Cc1cc(F)cc(-c2cnc(NCCNC(=O)CCOCCOCCOCCOCCC(=O)*)c(-c3nc4ccc(Cl)cc4[nH]3)c2N2CCC(N)CC2)c1; Dolaproine = CO[C@@H]([C@@H]1CCCN1)[C@@H](C)C(=O)O; Dil = CC[C@H](C)[C@H](NC)[C@@H](CC(=O)O)OC; PABC = O=C(OCc1ccc(N[*:1])cc1)[*:2]; X2 = C[C@@H](N*)[C@@H](O)c1ccccc1; Cit = NC(=O)NCCC[C@H](N)C(=O)O; NMeV = CN[C@H](C(=O)O)C(C)C; Ahx = NCCCCCC(=O)O

Assays:
Type in all cases: cell-based
[1] = test system: NCI-H524 human small cell lung cancer cells; assay: H524 assay: inhibition of cell proliferation (CellTiter Glo); conditions: 2 h treatment, washout, additional 70 h incubation
Summary of the method: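 Proliferation was measured by CellTiter Glo 70 h after a washout that followed a 2 h pulse of NDC. Doses were an 11-point, two-fold dilution series from 1 uM. IC50 was fitted with a four-parameter model to luminescence-based % inhibition relative to control cells.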

[2] = molecular target: T1, human somatostatin receptor subtype 2 (Homo sapiens, UniProt P30874); assay: Functional assay for SSTR2 agonists (HTRF cAMP); conditions: CHO-K1 cells stably expressing human SST2, NKH477-stimulated cAMP, 20 min at 37 C
T1 construct: expressed in transfected cells
Summary of the method: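 Agonist activity read as fall in intracellular cAMP: HTRF 665/620 nm ratio regressed to a cAMP standard curve, EC50 fitted. Stable human SSTR2 CHO-K1 cells exposed 20 min at 37 °C to compound, final concentrations typically 0-10,000 nM.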

SST2 = molecular target: T2, SST2 (Homo sapiens, UniProt P30874); assay: PathHunter CHO-K1 SST2 Internalization Assay; conditions: PathHunter CHO-K1 SST2 cells, 90 min at 37 C, luminescence
T2 construct: host or cells: PathHunter CHO-K1 SST2 cells
Summary of the method: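 Four-parameter nonlinear fits of background-corrected luminescence (duplicate means) gave IC50s. NDCs were serially diluted 1:3 over 11 points from a 10 uM final top concentration and incubated 90 min at 37 C with human SST2 CHO-K1 cells plated 48 h earlier at 2500/well. Beta-Glo read-out developed 60 min at RT.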

T1 sequence (P30874 whole entry): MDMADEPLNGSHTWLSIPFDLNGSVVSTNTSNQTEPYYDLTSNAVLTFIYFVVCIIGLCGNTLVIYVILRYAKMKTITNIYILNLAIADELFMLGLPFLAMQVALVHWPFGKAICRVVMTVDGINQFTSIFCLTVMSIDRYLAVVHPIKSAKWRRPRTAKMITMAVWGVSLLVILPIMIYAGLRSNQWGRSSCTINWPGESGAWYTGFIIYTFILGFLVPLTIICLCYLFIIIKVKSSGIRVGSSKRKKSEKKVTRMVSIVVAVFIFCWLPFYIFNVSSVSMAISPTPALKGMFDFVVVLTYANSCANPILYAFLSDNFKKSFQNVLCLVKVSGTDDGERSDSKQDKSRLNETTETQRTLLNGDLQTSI
T2 sequence (P30874 whole entry): as above

| SMILES | EC50 [1] [nM] | EC50 ([2]; read-out: hSST2 cAMP Avg EC50) [nM] | EC50 (SST2; read-out: Internalization EC50) [nM] | EC50 ([2]; hSST2 cAMP Avg EC50 (nM)) [nM] | EC50 (SST2; Internalization EC50 (nM)) [nM] |
| --- | --- | --- | --- | --- | --- |
| CC[C@H](C)[C@@H]([C@@H](CC(=O)N1CCC[C@H]1[C@H](OC)[C@@H](C)C(=O)N[C@H](C)[C@@H](O)c1ccccc1)OC)N(C)C(=O)[C@@H](NC(=O)[C@H](C(C)C)N(C)C(=O)OCc1ccc(NC(=O)[C@H](CCCNC(N)=O)NC(=O)[C@@H](NC(=O)CCOCCC(=O)NCCNc2ncc(-c3cc(C)cc(F)c3)c(N3CCC(N)CC3)c2-c2nc3ccc(Cl)cc3[nH]2)C(C)C)c(O[C@@H]2O[C@H](C(=O)NCCCCCNC(=O)CCCCc3ccc(I)cc3)[C@@H](O)[C@H](O)[C@H]2O)c1)C(C)C [Compound 225] | 18 | 0.26 | 1.9 |  |  |
| CC[C@@H](C)[C@H]([C@H](CC(=O)N1CCC[C@@H]1[C@@H](OC)[C@H](C)C(=O)N[C@@H](C)[C@H](O)c1ccccc1)OC)N(C)C(=O)[C@H](NC(=O)[C@@H](C(C)C)N(C)C(=O)OCc1ccc(NC(=O)[C@@H](CCCNC(N)=O)NC(=O)[C@H](NC(=O)[C@@H](CCC(=O)O)NC(=O)CCOCCOCCNC(=O)CCc2cn(CCCC[C@H](NC(=O)CCOCCC(=O)NCCNc3ncc(-c4cc(C)cc(F)c4)c(N4CCC(N)CC4)c3-c3nc4ccc(Cl)cc4[nH]3)C(=O)NCCOCCOCCC(=O)N[C@@H](CCC(=O)O)C(=O)N[C@H](C(=O)N[C@@H](CCCNC(N)=O)C(=O)Nc3ccc(COC(=O)N(C)[C@H](C(=O)N[C@H](C(=O)N(C)[C@@H]([C@@H](C)CC)[C@@H](CC(=O)N4CCC[C@H]4[C@H](OC)[C@@H](C)C(=O)N[C@H](C)[C@@H](O)c4ccccc4)OC)C(C)C)C(C)C)cc3)C(C)C)nn2)C(C)C)cc1)C(C)C [Compound 245] | 140 |  |  | 11 | 440 |
| CC[C@H](C)[C@@H]([C@@H](CC(=O)N1CCC[C@H]1[C@H](OC)[C@@H](C)C(=O)N[C@H](C)[C@@H](O)c1ccccc1)OC)N(C)C(=O)[C@@H](NC(=O)[C@H](C(C)C)N(C)C(=O)OCc1ccc(NC(=O)[C@H](CCCNC(N)=O)NC(=O)[C@@H](NC(=O)CCCCCNC(=O)[C@H](CCC(=O)O)NC(=O)[C@H](CCC(N)=O)NC(=O)CCOCCOCCOCCOCCC(=O)NCCNc2ncc(-c3cc(C)cc(F)c3)c(N3CCC(N)CC3)c2-c2nc3ccc(Cl)cc3[nH]2)C(C)C)cc1)C(C)C [Compound 192] (X3-QE[Ahx]V[Cit][PABC][NMeV]V[Dil][Dolaproine]-X2) | 1300 | 0.37 | 12 |  |  |
| CC[C@H](C)[C@@H]([C@@H](CC(=O)N1CCC[C@H]1[C@H](OC)[C@@H](C)C(=O)N[C@H](C)[C@@H](O)c1ccccc1)OC)N(C)C(=O)[C@@H](NC(=O)[C@H](C(C)C)N(C)C(=O)OCc1ccc(NC(=O)[C@H](C)NC(=O)[C@@H](NC(=O)CCOCCN2CCC(C(=O)NCCNc3ncc(-c4cc(C)cc(F)c4)c(N4CCC(N)CC4)c3-c3nc4ccc(Cl)cc4[nH]3)CC2)C(C)C)c(O[C@@H]2O[C@H](C(=O)O)[C@@H](O)[C@H](O)[C@H]2O)c1)C(C)C [Compound 93] | 120 | 0.28 | 33 |  |  |
| CC[C@H](C)[C@@H]([C@@H](CC(=O)N1CCC[C@H]1[C@H](OC)[C@@H](C)C(=O)N[C@H](C)[C@@H](O)c1ccccc1)OC)N(C)C(=O)[C@@H](NC(=O)[C@H](C(C)C)N(C)C(=O)OCc1ccc(NC(=O)[C@H](C)NC(=O)[C@@H](NC(=O)[C@@H](CS(=O)(=O)O)NC(=O)CCOCCC(=O)NCCNc2ncc(-c3cc(C)cc(F)c3)c(N3CCC(N)CC3)c2-c2nc3ccc(Cl)cc3[nH]2)C(C)C)c(O[C@@H]2O[C@H](C(=O)NCCN)[C@@H](O)[C@H](O)[C@H]2O)c1)C(C)C [Compound 41] | 40 | 0.081 | 9 |  |  |
| CC[C@H](C)[C@@H]([C@@H](CC(=O)N1CCC[C@H]1[C@H](OC)[C@@H](C)C(=O)N[C@H](C)[C@@H](O)c1ccccc1)OC)N(C)C(=O)[C@@H](NC(=O)[C@H](C(C)C)N(C)C(=O)OCc1ccc(NC(=O)[C@H](CCCNC(N)=O)NC(=O)[C@@H](NC(=O)c2ccc(NC(=O)CCOCCOCCOCCOCCC(=O)NCCNc3ncc(-c4cc(C)cc(F)c4)c(N4CCC(N)CC4)c3-c3nc4ccc(Cl)cc4[nH]3)cc2O[C@@H]2OC(C(=O)O)[C@@H](O)[C@H](O)[C@H]2O)C(C)C)cc1)C(C)C (stereo partly drawn) [Compound 183] | 1000 | 0.074 | 3.1 |  |  |
| CC[C@H](C)[C@@H]([C@@H](CC(=O)N1CCC[C@H]1[C@H](OC)[C@@H](C)C(=O)N[C@H](C)[C@@H](O)c1ccccc1)OC)N(C)C(=O)[C@@H](NC(=O)[C@H](C(C)C)N(C)C(=O)OCc1ccc(NC(=O)[C@H](CCCNC(N)=O)NC(=O)[C@@H](NC(=O)CCOCCC(=O)NCCNc2ncc(-c3cc(C)cc(F)c3)c(N3CCC(N)CC3)c2-c2nc3ccc(Cl)cc3[nH]2)C(C)C)c(O[C@@H]2O[C@H](C(=O)N(C)C)[C@@H](O)[C@H](O)[C@H]2O)c1)C(C)C [Compound 217] | 6.9 | 0.093 | 6 |  |  |
| CC[C@H](C)[C@@H]([C@@H](CC(=O)N1CCC[C@H]1[C@H](OC)[C@@H](C)C(=O)N[C@H](C)[C@@H](O)c1ccccc1)OC)N(C)C(=O)[C@@H](NC(=O)[C@H](C(C)C)N(C)C(=O)OCc1ccc(NC(=O)[C@H](CCCNC(N)=O)NC(=O)[C@@H](NC(=O)[C@H](CCCO)NC(=O)CCOCCC(=O)NCCNc2ncc(-c3cc(C)cc(F)c3)c(N3CCC(N)CC3)c2-c2nc3cc(Cl)ccc3[nH]2)C(C)C)c(O[C@@H]2O[C@H](C(=O)NCC(=O)O)[C@@H](O)[C@H](O)[C@H]2O)c1)C(C)C [Compound 219] | 7.5 | 0.099 | 2.7 |  |  |
| CC[C@H](C)[C@@H]([C@@H](CC(=O)N1CCC[C@H]1[C@H](OC)[C@@H](C)C(=O)N[C@H](C)[C@@H](O)c1ccccc1)OC)N(C)C(=O)[C@@H](NC(=O)[C@H](C(C)C)N(C)C(=O)OCc1ccc(NC(=O)[C@H](C)NC(=O)[C@@H](NC(=O)C2(C(=O)NCCOCCC(=O)NCCNc3ncc(-c4cc(C)cc(F)c4)c(N4CCC(N)CC4)c3-c3nc4ccc(Cl)cc4[nH]3)CCC2)C(C)C)cc1C(=O)NCCN)C(C)C [Compound 82] | 6.6 | 0.26 | 13 |  |  |
| CC[C@H](C)[C@@H]([C@@H](CC(=O)N1CCC[C@H]1[C@H](OC)[C@@H](C)C(=O)N[C@H](C)[C@@H](O)c1ccccc1)OC)N(C)C(=O)[C@@H](NC(=O)[C@H](C(C)C)N(C)C(=O)OCc1ccc(NC(=O)[C@H](CCCNC(N)=O)NC(=O)[C@@H](NC(=O)c2cc(NCCCC(=O)N(C)CC(=O)NCCNc3ncc(-c4cc(C)cc(F)c4)c(N4CCC(N)CC4)c3-c3nc4ccc(Cl)cc4[nH]3)cc(C(=O)NC[C@@H](N)C(=O)O)c2)C(C)C)cc1)C(C)C [Compound 172] | 22 | 0.33 | 6.3 |  |  |
| CC[C@H](C)[C@@H]([C@@H](CC(=O)N1CCCC1[C@H](OC)[C@@H](C)C(=O)N[C@H](C)[C@@H](O)c1ccccc1)OC)N(C)C(=O)[C@@H](NC(=O)[C@H](C(C)C)N(C)C(=O)OCc1ccc(O[C@@H]2O[C@H](C(=O)O)[C@@H](O)[C@H](O)[C@H]2O)c(NC(=O)[C@H](C)NC(=O)[C@@H](NC(=O)CCOCCC(=O)NCCNc2ncc(-c3cc(C)cc(F)c3)c(N3CCC(N)CC3)c2-c2nc3ccc(Cl)cc3[nH]2)C(C)C)c1)C(C)C (stereo partly drawn) [Compound 249] | 9.8 | 0.086 | 4.5 |  |  |
| CC[C@H](C)[C@@H]([C@@H](CC(=O)N1CCC[C@H]1[C@H](OC)[C@@H](C)C(=O)N[C@H](C)[C@@H](O)c1ccccc1)OC)N(C)C(=O)[C@@H](NC(=O)[C@H](C(C)C)N(C)C(=O)OCc1ccc(NC(=O)[C@H](C)NC(=O)[C@@H](NC(=O)CCOCCC(=O)NCCNc2ncc(-c3cc(C)cc(F)c3)c(N3CCC(N)CC3)c2-c2nc3c(F)c(F)ccc3[nH]2)C(C)C)c(O[C@@H]2O[C@H](C(=O)O)[C@@H](O)[C@H](O)[C@H]2O)c1)C(C)C [Compound 109] | 200 | 1.1 | 35 |  |  |
